The text below walks through data of US11092596B2, “Material and method to screen proteasome stimulators” (Purdue Research Foundation, priority 2017, dated 2021).

What all share (assay type): biochemical
For experiment [1], the target named is T1, chymotrypsin-like activity of the 20S CP (Homo sapiens, UniProt P28074).
T1 construct: 5 μL purified 20S proteasome (90 nM in Tris-HCl) was added to the control and test wells
Kind of experiment: Kinetic assay, Suc-LLVY-AMC reporter hydrolysis by purified 20S CP. The conditions noted are these: 25 μM compound, triplicate; hit = at least 50% increase. The method, then:
(§1) Plate preparation for the kinetic assay was performed similarly for all assays. All 96-well plates contained the following in triplicate: reporter background, containing reporter only, and control wells, containing reporter and purified 20S CP. It was determined that each well will contain a total volume of 50 μL. To each well was added 40 μL of the coumarin or FRET reporters (in Tris-HCl, 50 mM, pH 7.7). To the reporter background wells was added 7.5 μL Tris-HCl and 2.5 μL of the solvent in which the compound of interest was dissolved or diluted. Similarly, to the control wells was added 2.5 μL Tris-HCl and 2.5 μL of the solvent in which the compound of interest was dissolved or diluted. To the test wells was added 2.5 μL Tris-HCl and 2.5 μL of the compound of interest at a predetermined concentration. Immediately prior to running the assay on the Synergy 4 Plate Reader, 5 μL purified 20S proteasome (90 nM in Tris-HCl) was added to the control and test wells.
(§2) The Synergy 4 Plate Reader was set to heat the plate at 37° C. and read fluorescence every 2 min over a 40 min period. The excitation and emission wavelengths were set according to the reporter. For the FRET reporter, the excitation and emission wavelengths were set to 335 nm and 493 nm, respectively, corresponding to the excitation and emission wavelengths of the Edans fluorophore. […]
Sodium dodecyl sulfate (SDS) was used to test the effect stimulating the 20S proteasome has on the hydrolysis of the FRET reporters. The appropriate concentration of SDS to use in the kinetic assay was determined using the small chymotrypsin-like activity reporter, Suc-LLVY-AMC (SEQ ID NO: 4). […] In triplicate, the following final concentrations of SDS were analyzed for the effect each has on the activity of the 20S proteasome: 4000 μM, 2000 μM, 1000 μM, 500 μM, 250 μM, 125 μM, and 0 μM, the basal activity of the 20S proteasome. […] Immediately prior to reading the plate with the Synergy 4 plate reader, 5 μL purified 20S proteasome (90 nM in Tris-HCl) was added to the wells at a final concentration of 9 nM per well.
The Synergy 4 Plate Reader was set to heat the plate at 37° C. and read fluorescence every 2 min over a 1 hr period. […] The resulting data in relative fluorescence units (RFU) was analyzed using GraphPad Prism and was plotted against time in minutes. […] Based on the resulting curve and the hyperbolic curve obtained using 1000 μM SDS (FIG. 11b), it was determined that 500 μM SDS was the appropriate concentration to use to test the effect stimulating the 20S proteasome has on the hydrolysis of the FRET reporters.
Stimulation of the 20S proteasome with SDS was determined using both the coumarin and FRET reporters for the chymotrypsin-like and trypsin-like activities of the 20S CP. […]

Experiment [2] has as its target trypsin-like activity of the 20S CP (Homo sapiens, UniProt Q99436). Kind of experiment: Kinetic assay, T-L FRET reporter hydrolysis by purified 20S CP. The conditions noted are these: 25 μM compound, T-L FRET reporter; basal level set to 100%. The method, then:
as §1, §2
Stimulation of the 20S proteasome with SDS was determined using both the coumarin and FRET reporters for the chymotrypsin-like and trypsin-like activities of the 20S CP. […] Immediately prior to running the assay on the Synergy 4 Plate Reader, 5 μL purified 20S proteasome (90 nM in Tris-HCl) was added to the control and test wells. The assay was performed using the Synergy 4 plate reader as described for the general screening kinetic assay procedure. […]
To each well was added 40 μL 20 μM T-L FRET reporter (in Tris-HCl, 50 mM, pH 7.7). […] Immediately prior to running the assay on the Synergy 4 Plate Reader, 5 μL purified 20S proteasome (90 nM in Tris-HCl) was added to the control and test wells.

Experiment [3] concerns the target T2, chymotrypsin-like activity of the 26S proteasome (Homo sapiens, UniProt P28074).
T2 construct: 5 μL purified 26S proteasome (62.5 μg/mL in Tris-HCl) was added to the control and test wells
Put plainly: Kinetic assay, CT-L FRET reporter with 26S proteasome. The conditions noted are these: 25 μM compound. The method, then: Compounds 1, 2, and 3 were screened with the 26S proteasome in triplicate using the CT-L FRET reporter.
To each well was added 40 μL 20 μM CT-L FRET reporter (in Tris-HCl, 50 mM, pH 7.7). To the reporter background wells was added 5 μL Tris-HCl and 5 μL 1:1 Tris-HCl:DMSO. Similarly, to the control wells was added 5 μL 1:1 Tris-HCl:DMSO. To the test wells was added 2.5 μL Tris-HCl and 2.5 μL of a 500 μM solution of the compound of interest in DMSO. […] Immediately prior to running the assay on the Synergy 4 Plate Reader, 5 μL purified 26S proteasome (62.5 μg/mL in Tris-HCl) was added to the control and test wells.
The assay was performed using the Synergy 4 plate reader as described for the general screening kinetic assay procedure.

`C[C@H]1[C@H](C)CC[C@]2(C(=O)O)CC[C@]3(C)C(=CC[C@@H]4[C@@]5(C)CC[C@H](O)C(C)(C)[C@@H]5CC[C@]43C)[C@H]12` [Compound 2, ursolic acid]: the “primary hit status with the 4-amino acid reporter Suc-LLVY-AMC” value in experiment [1] was “would not have been considered primary hits”. In addition, in experiment [2], the “stimulation of the trypsin-like activity of the 20S CP” value came to 234%. Also, the “ability to stimulate the 26S proteasome's CT-L activity” value in experiment [3] is given as “Neither molecules 2 or 3 affected the rate”.
The matching figures for `Cc1c(C)c2c(c(C)c1OC(=O)CCC(=O)O)CC[C@@](C)(CCC[C@H](C)CCC[C@H](C)CCCC(C)C)O2` [Compound 3, vitamin E succinate]: “would not have been considered primary hits”, 146% and “Neither molecules 2 or 3 affected the rate”.
